Test results from patent publication US8207122B2, “Anti-cancer bioactive peptides isolated from crude venom of Xinjiang Lycosa singoriensis” (Xiamen Bioway Biotech Co., Limited, priority 2007, dated 2012).
Where a SMILES comes first, the peptide text is derived from it. Where no end group is shown, it is not given here.

Legend:
[1] = Toxicity on a whole animal, subcutaneous injection; type: in vivo; settings: 200 mg/Kg body weight, mice, within 48 hours
Hela cells = assay: Comparison of inhibitory activity of peptides on Hela cells; type: cell-based; settings: for activity compared with SEQ ID NO. 1: anti-cancer activity, in words
Procedure: The above-mentioned experiments have verified the peptide has strong inhibition on the growth of cancer cells and solid tumors. In order to study the inhibition degree of difference sequences (SEQ. Nos. 1-5) of the peptide on tumor cells, comparative experiments of measuring the activity of Hela cells were conducted (as shown in FIG. 7).
Nos. 1-4, at a concentration of 40 μmol/L, the inhibition rate on Hela cells was about 90%, at 20 μmol/L, about 50%, at 5 μmol/L, only 2%. Thus, the inhibition degree of SEQ. Nos. 1-4 on Hela cells was basically equal. However, for SEQ. No. 5, at a concentration of 40 μmol/L, 20 μmol/L, and 5 μmol/L, the inhibition rate on Hela cells was more than 80%. Compared with that of SEQ. Nos. 1-4, the inhibition degree of SEQ. No. 5 had been increased by about 10 times. No. 1 and SEQ. No. 5 could dissolve 19% and 37% red cells respectively, which meant the hemolytic activity of SEQ. No. 5 was […] than that of SEQ. No. 1.

CC[C@H](C)[C@H](NC(=O)[C@H](Cc1ccccc1)NC(=O)[C@H](CCCCN)NC(=O)[C@H](C)NC(=O)[C@@H](NC(=O)[C@H](CO)NC(=O)[C@H](CCCCN)NC(=O)[C@H](CCSC)NC(=O)[C@H](C)NC(=O)[C@H](CCCCN)NC(=O)[C@H](Cc1ccccc1)NC(=O)[C@H](Cc1c[nH]c2ccccc12)NC(=O)CNC(=O)[C@H](CCCCN)NC(=O)[C@@H](N)CCCNC(=N)N)[C@@H](C)CC)C(=O)N[C@@H](C)C(=O)N[C@@H](CCCCN)C(=O)N[C@@H](CCC(=O)O)C(=O)N[C@@H](CCCCN)C(=O)N[C@@H](CC(C)C)C(=O)N[C@@H](CCCCN)C(=O)N[C@@H](CCC(=O)O)C(=O)N[C@@H](Cc1c[nH]cn1)C(=O)N[C@@H](CC(C)C)C(N)=O [SEQ. No. 1] (H-RKGWFKAMKSIAKFIAKEKLKEHL-NH2)
toxic reaction [1]: no obvious toxic reaction was observed

Lys Gly Trp Phe Lys Ala Met Lys Ser Ile Ala Lys Phe Ile Ala Lys Glu Lys Leu Lys Glu His Leu-NH2 (KGWFKAMKSIAKFIAKEKLKEHL-NH2) [SEQ ID NO. 3]
activity compared with SEQ ID NO. 1 (Hela cells): same activity

Lys Gly Trp Phe Lys Ala Met Lys Ser Ile Ala Lys Phe Ile Ala Lys Glu Lys Met Lys Glu His Leu-NH2 (KGWFKAMKSIAKFIAKEKMKEHL-NH2; listed as Lycosa singoriensis) [SEQ ID NO. 2]
activity compared with SEQ ID NO. 1 (Hela cells): same activity

CC[C@H](C)[C@H](NC(=O)[C@H](Cc1ccccc1)NC(=O)[C@H](CCCCN)NC(=O)[C@H](C)NC(=O)[C@@H](NC(=O)[C@H](CO)NC(=O)[C@H](CCCCN)NC(=O)[C@H](CCSC)NC(=O)[C@H](C)NC(=O)[C@@H](N)CCCCN)[C@@H](C)CC)C(=O)N[C@@H](C)C(=O)N[C@@H](CCCCN)C(N)=O [SEQ. No. 5, Lys Ala Met Lys Ser Ile Ala Lys Phe Ile Ala Lys-NH2] (H-KAMKSIAKFIAK-NH2)
inhibition rate on Hela cells (Hela cells; 5 μmol/L): more than 80%
inhibition rate on Hela cells (Hela cells; 20 μmol/L): more than 80%
inhibition rate on Hela cells (Hela cells; 40 μmol/L): more than 80%

WFKAMKSIAKFIAKEKLK [SEQ ID NO. 4]
activity compared with SEQ ID NO. 1 (Hela cells): same activity
